# Measured values published in US20020098213A1, “USE OF ELLAGIC ACID AND ITS DERIVATIVES IN COSMETICS AND DERMATOLOGY” (priority 1997, published 2002).
# How the values were obtained:
# [1] = test system: collagen VII in a culture of normal human keratinocytes; experiment: ELISA of collagen VII in supernatants of normal human keratinocyte cultures; assay type: cell-based; conditions: ellagic acid 0.5 μg/ml; for RODC for 72 h of incubation: reduced optical density corrected to 100 μg cellular proteins; for A for 72 h of incubation (activity on the proportion of collagen VII): relative to control culture
# [2] = test system: normal human keratinocytes; experiment: XTT viability test and microscopic observation of the cells; assay type: cell-based; conditions: test concentration 0.5 μg per ml; plate treated in parallel
# Procedure: The cells are inoculated in a 96-well culture plate at a rate of 25,000 NHK per well in SFMc. After incubation for 24 h, which is necessary for good adhesion of the cells, the medium is replaced with SFMc diluted to 2% to limit the proliferation of the keratinocytes during the test. The test concentration of ellagic acid is 0.5 microgram per ml of test medium, which is obtained immediately beforehand from a stock solution containing 0.5 mg of ellagic acid per ml of DMSO. The final concentration of DMSO in the test medium is therefore 0.1% V/Vfinal. This concentration is not toxic to the cells. The control consists of SFMc test medium diluted to 2%, to which 0.1% V/V of DMSO has been added. Six cultures are prepared for the test product and six for the control experiment.
# A plate treated in parallel is used for the XTT viability test with the XTT kit from Boehringer, reference 146 50 15, in order to measure the mitochondrial dehydrogenase activity of the viable cells.
structure (smiles),measurement,setting,value
"O=c1oc2c(O)c(O)cc3c(=O)oc4c(O)c(O)cc1c4c23 [Ellagic acid, 2,3,7,8-tetrahydroxy(1)-benzopyrano-pyrano (5,4,3-cde)(1)benzopyran-5,10-dione]",RODC for 72 h of incubation,[1]; NHK 1106P1 (face-lift),1.563 ± 0.240
same,A for 72 h of incubation (activity on the proportion of collagen VII),[1]; NHK 1106P1 (face-lift),+64%
same,RODC for 72 h of incubation,[1]; NHK 1124P2 (face-lift),1.098 ± 0.100
same,A for 72 h of incubation (activity on the proportion of collagen VII),[1]; NHK 1124P2 (face-lift),+42%
same,proportion of collagen VII present in the culture media,[1]; both strains,large and significant increase
same,"viability (mitochondrial dehydrogenase activity of viable cells, XTT; microscopic observation)",[2],No significant drop in viability
